According to patent US11674962B2, “Therapeutic and diagnostic methods for cancer” (Genentech, Inc., priority 2017, dated 2023):

Key:
[1] = system: non-small cell lung cancer (NSCLC); assay: Combined POPLAR and OAK studies: PFS by bTMB score; format: in vivo, human; conditions: combined BEP of POPLAR and OAK (n=775), reference bTMB score of 14, atezolizumab vs docetaxel
Excerpt: FIG. 7A is a graph showing the Kaplan-Meier Curve of PFS of the combined BEP of patients (nBEP=775 patients; HR=0.62) in the atezolizumab treatment arm (black) and docetaxel control arm (gray) of the POPLAR and OAK studies, each arm stratified according to bTMB score. Patients with a bTMB score that is greater than, or equal to, a reference bTMB score of 14 are indicated by solid lines (Dx+) and patients with a bTMB that is lower than a reference bTMB score of 14 are indicated by dashed lines (Dx−). […] The time point for each column corresponds to the times shown along the x-axis of the above graph. Patient samples having an MSAF less than 1% were excluded from analysis. Sequence coverage was greater than, or equal to, 800. […]
Analysis of bTMB was performed retrospectively. Progression-free survival (PFS) was defined as the time between date of randomization and date of first documented disease progression as assessed by the investigator using RECIST v.1.1 or death from any cause, whichever occurred first. […]

[2] = system: treatment-naive, locally advanced or metastatic (stage IIIB-IVB) NSCLC; assay: B-F1RST phase II trial (NCT02848651) interim analysis: efficacy of first-line atezolizumab by bTMB subgroup; format: in vivo, human
Excerpt: The B-F1 RST (Clinical Trial ID No.: NCT02848651) patient population being evaluated for bTMB score consists of approximately 150 patients at 20 to 25 study sites (N=153). Patients are eligible for enrollment in the B-F1 RST study if they have treatment-naïve, locally advanced or metastatic (e.g., stage IIIB-IVB) NSCLC; measurable disease, as defined by RECIST v1.1; and an ECOG performance status of 0 or 1. Exclusion criteria include sensitizing EGFR mutations or ALK rearrangements; active brain metastases requiring treatment; leptomeningeal disease; other malignancies within 5 years of enrollment; HBV, HCV, or HIV infection; or history of autoimmune disorder. Participants are divided into cohorts based on bTMB score and receive atezolizumab at a dose of 1200 mg intravenously every three weeks. All patients undergo tumor assessment at baseline and every 6 weeks for the first 12 months following cycle 1, day 1, and then every 9 weeks therafter. Treatment with atezolizumab can be continued as long as participants were experiencing clinical benefit, i.e., in the absence of unacceptable toxicity or symptomatic deterioration attributed to disease progression. Tumor assessments continue until disease progression per RECIST v1.1 or loss of clinical benefit (investigator assessed), consent withdrawal, study discontinuation, study completion, or death. Mandatory blood samples are taken at baseline, during therapy, and at progression to evaluate changes in exploratory biomarkers. The interim analysis was prespecified to occur at 6 months after 50% of the patients have been enrolled, with a prespecified bTMB score of ≥16. The co-primary endpoints are the clinical efficacy of atezolizumab (as evaluated by investigator-assessed ORR per RECIST v1.1) and the relationship between bTMB and PFS benefit (as evaluated by investigator-assessed PFS per RECIST v1.1). The secondary objectives are safety and assessment of efficacy by investigator-assessed duration of response (DOR) and OS.
Of 78 treated patients in the interim analysis population (IAP) from the B-F1 RST study, 58 had adequate blood samples with sufficient detection of circulating tumor DNA (MSAF≥1%) and comprised the biomarker-evaluable population (BEP). One patient of the IAP was never treated and therefore not safety- or efficacy-evaluable. A bTMB score of 16 (prevalence, 19% [11/58]) was prespecified to evaluate clinical efficacy in the BEP (bTMB high, ≥16; bTMB low, <16). Statistical tests were 2-sided at a 0.1 level and 90% confidence interval.

[3] = bTMB cut-off score 12, BEP n = 58
[4] = bTMB cut-off score 14, BEP n = 58
[5] = bTMB cut-off score 16, BEP n = 58
[6] = bTMB cut-off score 20, BEP n = 58

atezolizumab was tested, and the “PFS HR” value [1] was 0.62, the disease control rate ([2]; B-F1RST interim analysis, BEP (n=58)) was 25.9% and the ORR ([2]; B-F1RST interim analysis, BEP (n=58), RECIST v1.1) was 12.1%. For the same substance, the “PFS HR (90% CI)” value ([2]; B-F1RST interim analysis, bTMB high (≥16) vs low (<16)) was 0.51, the “median PFS” value ([2]; B-F1RST interim analysis, bTMB high (≥16), minimum follow-up of 6 months) was 9.5 months and the ORR ([2]; B-F1RST interim analysis, bTMB high (≥16), n=11) was 36.4%. The “ORR odds ratio (90% CI)” value ([2]; B-F1RST interim analysis, bTMB high versus low groups) was 8.38, the “median PFS” value ([2]; B-F1RST interim analysis, bTMB low (<16), minimum follow-up of 6 months) was 2.8 months and the ORR ([2]; B-F1RST interim analysis, bTMB low (<16), n=47) was 6.4%. For the same substance, the “ORR per RECIST v.1.1” value ([2]; BEP (n = 58)) was 12.1%, the “PD per RECIST v.1.1” value ([2]; BEP (n = 58)) was 37.9% and the “PR per RECIST v.1.1” value ([2]; BEP (n = 58)) was 12.1%. For the same substance, the “ORR per RECIST v.1.1” value ([2]; IAP (n = 78)) was 15.4%, the “PD per RECIST v.1.1” value ([2]; IAP (n = 78)) was 37.2% and the “PR per RECIST v.1.1” value ([2]; IAP (n = 78)) was 15.4%. The “PFS Median, bTMB High” value [2, 3] was 3.0 (22) months, the “PFS Median, bTMB Low” value [2, 3] was 3.2 (36) months and the “PFS Median, bTMB High” value [2, 4] was 3.4 (14) months. The “PFS Median, bTMB Low” value [2, 4] was 3.2 (44) months, the “PFS Median, bTMB High” value [2, 5] was 9.5 (11) months and the “PFS Median, bTMB Low” value [2, 5] was 2.8 (47) months. The “PFS Median, bTMB High” value [2, 6] was 9.5 (8) months, the “PFS Median, bTMB Low” value [2, 6] was 2.7 (50) months and the “ORR per RECIST v.1.1” value ([2]; bTMB high (n = 11)) was 36.4%. The “PD per RECIST v.1.1” value ([2]; bTMB high (n = 11)) was 36.4%, the “PR per RECIST v.1.1” value ([2]; bTMB high (n = 11)) was 36.4% and the “PFS HR” value ([2]; bTMB high (≥16) vs bTMB low (<16), Table 20) was 0.51. The “median PFS” value ([2]; bTMB high (≥16), n = 11, BEP, first-line atezolizumab, minimum follow-up 6 months) was 9.5 mo, the “PFS HR” value ([2]; bTMB high vs low at cut-off score 12, BEP n = 58) was 0.95 and the “PFS HR” value ([2]; bTMB high vs low at cut-off score 14, BEP n = 58) was 0.73. For the same substance, the “PFS HR” value ([2]; bTMB high vs low at cut-off score 16, BEP n = 58, Table 21) was 0.49, the “PFS HR” value ([2]; bTMB high vs low at cut-off score 20, BEP n = 58) was 0.23 and the “median PFS” value ([2]; bTMB low (<16), n = 47, BEP, first-line atezolizumab, minimum follow-up 6 months) was 2.8 mo. The “ORR per RECIST v.1.1” value ([2]; bTMB low (n = 47)) was 6.4%, the “PD per RECIST v.1.1” value ([2]; bTMB low (n = 47)) was 38.3% and the “PR per RECIST v.1.1” value ([2]; bTMB low (n = 47)) was 6.4%.
